Assay [1] addresses T1, Serine/threonine-protein kinase PLK1 (Homo sapiens, UniProt P53350). The experiment in a line: Binding affinity to human PLK1-PBD (326 to 603 residues) expressed in Escherichia coli BL21(DE3) rosetta cells by microscale thermophoresis analysis. Background: In MST a laser heats a spot of the sample, and binding alters the fluorescence response.
The target of assay [2] is T1, Serine/threonine-protein kinase PLK1. The experiment in a line: Inhibition of human PLK1-PBD (326 to 603 residues) expressed in Escherichia coli BL21(DE3) rosetta cells using 5-carboxyfluorescein-GPMQSpTPLNG-OH as substrate preincubated for 1 hr followed by substrate addition and measured after 1 to 2 hr by fluorescence polarization assay. A general note: In fluorescence polarisation assays a small probe gives low polarisation when free and higher when bound to something large.

Assay [3] has as its system MOLM-13. The experiment in a line: Antiproliferative activity against human MOLM-13 cells assessed as inhibition of cell proliferation incubated for 24 hrs by CCK-8 assay. The assay is classed as functional, cell-based. The settings on record: MOLM-13, 24 h. On the technique in general: Formazan colour is commonly taken as a measure of viable cells.
Assay [4] has as its system KG-1. The experiment in a line: Antiproliferative activity against human KG-1 cells assessed as inhibition of cell proliferation incubated for 24 hrs by CCK-8 assay. Format: functional, cell-based. The settings on record: KG-1, 24 h.
Assay [5] concerns the target T1, Serine/threonine-protein kinase PLK1. The experiment in a line: Inhibition of PLK1 (unknown origin).
The target in assay [6] is Serine/threonine-protein kinase PLK2 (Homo sapiens, UniProt Q9NYY3). The experiment in a line: Inhibition of recombinant C-terminal 6His-tagged human PLK2-PBD expressed in Escherichia coli BL21(DE3) rosetta cells using 5-carboxyfluorescein-GPMQTSpTPKNG-OH as substrate preincubated for 1 hr followed by substrate addition and measured after 1 hr by fluorescence polarization assay.
Sequence of Serine/threonine-protein kinase PLK2 (Q9NYY3 whole entry): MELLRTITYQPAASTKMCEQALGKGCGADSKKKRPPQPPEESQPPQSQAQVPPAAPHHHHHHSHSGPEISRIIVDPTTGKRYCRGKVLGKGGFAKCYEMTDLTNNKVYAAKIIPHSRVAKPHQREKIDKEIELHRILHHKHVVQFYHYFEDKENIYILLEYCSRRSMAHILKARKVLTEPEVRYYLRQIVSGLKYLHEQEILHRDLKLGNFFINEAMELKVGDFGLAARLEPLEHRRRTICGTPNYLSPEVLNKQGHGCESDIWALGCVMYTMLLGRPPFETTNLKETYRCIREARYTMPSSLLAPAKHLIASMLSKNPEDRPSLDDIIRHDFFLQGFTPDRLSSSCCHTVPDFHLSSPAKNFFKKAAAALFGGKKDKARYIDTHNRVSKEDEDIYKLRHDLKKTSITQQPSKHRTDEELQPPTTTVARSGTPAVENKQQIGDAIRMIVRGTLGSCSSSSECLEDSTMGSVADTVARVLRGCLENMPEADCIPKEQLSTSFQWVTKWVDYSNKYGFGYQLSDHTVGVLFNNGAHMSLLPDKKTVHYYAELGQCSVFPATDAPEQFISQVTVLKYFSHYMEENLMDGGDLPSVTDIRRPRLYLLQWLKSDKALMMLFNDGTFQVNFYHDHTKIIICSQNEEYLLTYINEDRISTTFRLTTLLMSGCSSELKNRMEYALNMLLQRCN

The test system of assay [7] is CCRF-CEM. The experiment in a line: Cytotoxicity against human CCRF-CEM cells assessed as reduction in cell viability incubated for 72 hrs by resazurin microplate assay. The assay is classed as functional, cell-based.
Assay [8] addresses Serine/threonine-protein kinase PLK3 (Homo sapiens, UniProt Q9H4B4). The experiment in a line: Inhibition of recombinant N-terminal MBP-tagged human PLK3-PBD expressed in Escherichia coli BL21(DE3) rosetta cells using 5-carboxyfluorescein-GPLATSpTPKNG-NH2 as substrate preincubated for 1 hr followed by substrate addition and measured after 1 hr by fluorescence polarization assay.

In assay [9] the test system is ADR5000 cell line. The experiment in a line: Cytotoxicity against human CEM/ADR5000 cells assessed as reduction in cell viability incubated for 72 hrs by resazurin microplate assay. The assay is classed as functional, cell-based. The settings on record: ADR5000, 72 h.
Assay [10] deals with T1, Serine/threonine-protein kinase PLK1. The experiment in a line: Inhibition of human PLK1-PBD expressed in Escherichia coli BL21(DE3) rosetta cells using 5-carboxyfluorescein-GPMQSpTPLNG-OH as substrate preincubated for 1 hr followed by substrate addition and measured after 1 hr by fluorescence polarization assay.
Assay [11] shares this target. The experiment in a line: Inhibition of PLK1-PBD (unknown origin) using FITC-GPMQSpTPLNG-OH as substrate measured after 30 mins by Fluorescence polarization assay.

Values joined by “and” are separate entries in the source; they are usually repeats but may differ in a detail not shown here. Equal entries are not always repeated.

T1 sequence (P53350 whole entry, the tested form may be a part): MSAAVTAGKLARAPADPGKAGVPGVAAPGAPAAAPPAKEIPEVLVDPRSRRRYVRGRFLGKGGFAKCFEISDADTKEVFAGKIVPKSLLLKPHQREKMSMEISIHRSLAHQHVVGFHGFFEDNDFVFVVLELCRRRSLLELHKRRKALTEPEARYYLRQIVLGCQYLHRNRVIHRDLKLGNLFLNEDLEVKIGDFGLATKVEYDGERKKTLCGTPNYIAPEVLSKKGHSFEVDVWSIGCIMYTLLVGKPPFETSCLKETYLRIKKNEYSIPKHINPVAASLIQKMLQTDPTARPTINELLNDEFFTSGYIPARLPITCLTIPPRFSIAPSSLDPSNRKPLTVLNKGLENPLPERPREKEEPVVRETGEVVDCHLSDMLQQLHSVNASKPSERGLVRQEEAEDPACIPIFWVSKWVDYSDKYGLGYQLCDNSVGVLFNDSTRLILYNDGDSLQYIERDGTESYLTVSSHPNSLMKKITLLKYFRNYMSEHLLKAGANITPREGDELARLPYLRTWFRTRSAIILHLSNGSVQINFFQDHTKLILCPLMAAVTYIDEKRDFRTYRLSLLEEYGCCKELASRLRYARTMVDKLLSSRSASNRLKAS
Sequence of Serine/threonine-protein kinase PLK3 (Q9H4B4 whole entry): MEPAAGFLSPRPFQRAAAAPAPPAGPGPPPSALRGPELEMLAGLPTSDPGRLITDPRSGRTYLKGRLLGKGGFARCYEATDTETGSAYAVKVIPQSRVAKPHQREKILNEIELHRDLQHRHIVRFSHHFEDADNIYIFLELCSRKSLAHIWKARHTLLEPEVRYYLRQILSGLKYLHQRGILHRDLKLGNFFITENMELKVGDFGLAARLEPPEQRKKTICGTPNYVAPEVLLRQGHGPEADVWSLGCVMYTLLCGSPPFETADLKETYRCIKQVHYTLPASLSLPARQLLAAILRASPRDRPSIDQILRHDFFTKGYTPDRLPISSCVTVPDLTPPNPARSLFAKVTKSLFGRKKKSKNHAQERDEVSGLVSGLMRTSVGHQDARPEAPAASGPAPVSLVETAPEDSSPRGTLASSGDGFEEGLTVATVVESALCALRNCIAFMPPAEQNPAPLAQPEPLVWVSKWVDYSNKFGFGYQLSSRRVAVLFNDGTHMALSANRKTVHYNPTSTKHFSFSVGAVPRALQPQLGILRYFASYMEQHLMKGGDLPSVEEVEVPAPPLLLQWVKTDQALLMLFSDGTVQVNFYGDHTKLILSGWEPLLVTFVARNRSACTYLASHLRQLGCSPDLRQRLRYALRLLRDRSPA

As for `CCOC(=O)c1oc2ccccc2c1CBr`, in assay [1], the Kd (commonly a measure of binding affinity in units of concentration) came out at 12.8 µM. For the same compound, in assay [2], it took 16.4 µM to reach half-maximal inhibition (IC50).
As to `CC[C@@H]1C(=O)N(C)c2cnc(Nc3ccc(C(=O)NCCOCCOCCOCCNc4cccc5c4C(=O)N(C4CCC(=O)NC4=O)C5=O)cc3OC)nc2N1C1CCCC1` (stereo partly specified), the IC50 (in general, the concentration that gives 50% inhibition) in assay [3] came out at 0.00621 µM; in [4], 0.00694 µM.
In assay [5], `COc1cc2ncn(-c3cc(-c4cccc(C(F)(F)F)c4)c(C(N)=O)s3)c2cc1OC` gave an IC50 of 0.0022 µM.
Regarding `C[C@@]12CN(Cc3cccc(C#N)c3)C[C@@](C)(C1)c1c(-c3ccc4ccccc4c3)ccc(=O)n1C2`, the IC50 was 95.5 µM in assay [6]; 11.4 µM in assay [7]; above 100 µM in assay [8]; 13.5 µM in assay [9]; 17.9 µM and 95.5 µM in assay [10].
In turn, `CC(CC(=O)N[C@H](C(=O)N[C@@H](CO)C(=O)N[C@H](C(N)=O)[C@@H](C)OP(=O)(O)O)c1cncs1)NC(=O)c1ccc(CO)cc1` (single isomer, unassigned) returned an IC50 in assay [11] of 0.267 µM.

The record behind these values is ChEMBL document CHEMBL5096169, “Recent progress in agents targeting polo-like kinases: Promising therapeutic strategies” (Eur J Med Chem, 2021).
